{
  "source": "ChEMBL document CHEMBL5325469",
  "about": "“Research progress of STAT3-based dual inhibitors for cancer therapy” (Bioorg Med Chem, 2023)",
  "key": {"A549": {"tested_on": "A549", "assay": "Antiproliferative activity against human A549 cells assessed as inhibition of cell growth", "type": "functional, cell-based"}, "HCT-116 [1]": {"tested_on": "HCT-116", "assay": "Antiproliferative activity against human HCT-116 cells assessed as inhibition of cell growth", "type": "functional, cell-based"}, "[2]": {"target": "Signal transducer and activator of transcription 3 (Homo sapiens, UniProt P40763)", "sequence (P40763 whole entry)": "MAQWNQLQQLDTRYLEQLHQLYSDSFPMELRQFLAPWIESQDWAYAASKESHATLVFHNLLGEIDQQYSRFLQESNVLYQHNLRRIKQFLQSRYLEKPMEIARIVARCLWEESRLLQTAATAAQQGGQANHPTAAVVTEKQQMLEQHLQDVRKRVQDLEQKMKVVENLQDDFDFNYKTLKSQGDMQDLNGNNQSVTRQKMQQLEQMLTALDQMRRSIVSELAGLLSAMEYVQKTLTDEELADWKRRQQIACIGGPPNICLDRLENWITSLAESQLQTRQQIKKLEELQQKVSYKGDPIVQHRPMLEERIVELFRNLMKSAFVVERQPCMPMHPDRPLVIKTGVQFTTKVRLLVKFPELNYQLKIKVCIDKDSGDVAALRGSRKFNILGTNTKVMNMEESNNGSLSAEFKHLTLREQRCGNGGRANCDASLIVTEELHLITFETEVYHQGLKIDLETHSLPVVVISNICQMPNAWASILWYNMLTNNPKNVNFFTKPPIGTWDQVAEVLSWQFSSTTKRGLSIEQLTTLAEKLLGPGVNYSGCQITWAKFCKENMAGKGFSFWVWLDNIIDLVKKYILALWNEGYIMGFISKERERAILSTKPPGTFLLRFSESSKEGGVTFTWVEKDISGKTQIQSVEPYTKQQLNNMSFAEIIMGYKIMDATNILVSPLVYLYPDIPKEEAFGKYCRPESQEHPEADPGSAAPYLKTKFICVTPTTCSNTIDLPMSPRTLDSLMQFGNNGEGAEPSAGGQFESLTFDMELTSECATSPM", "assay": "Inhibition of STAT3 phosphorylation (unknown origin)"}, "MDA-MB-231": {"tested_on": "MDA-MB-231", "assay": "Antiproliferative activity against human MDA-MB-231 cells assessed as inhibition of cell growth", "type": "functional, cell-based"}, "Tubulin [3]": {"target": "Tubulin", "assay": "Inhibition of tubulin polymerization (unknown origin)", "type": "protein-complex assay, Homo sapiens"}, "CAPAN-1": {"tested_on": "CAPAN-1", "assay": "Antiproliferative activity against human CAPAN-1 cells assessed as inhibition of cell growth incubated for 72 hrs by IncuCyte live-cell imaging analysis", "type": "functional, cell-based", "details": "CAPAN-1, 72 h"}, "Z-138": {"tested_on": "Z-138", "assay": "Antiproliferative activity against human Z138 cells assessed as inhibition of cell growth incubated for 72 hrs by IncuCyte live-cell imaging analysis", "type": "functional, cell-based", "details": "Z-138, 72 h"}, "HCT-116 [4]": {"tested_on": "HCT-116", "assay": "Antiproliferative activity against human HCT-116 cells assessed as inhibition of cell growth incubated for 72 hrs by IncuCyte live-cell imaging analysis", "type": "functional, cell-based", "details": "HCT-116, 72 h"}, "HL-60": {"tested_on": "HL-60", "assay": "Antiproliferative activity against human HL-60 cells assessed as inhibition of cell growth incubated for 72 hrs by IncuCyte live-cell imaging analysis", "type": "functional, cell-based", "details": "HL-60, 72 h"}, "NCI-H460": {"tested_on": "NCI-H460", "assay": "Antiproliferative activity against human NCI-H460 cells assessed as inhibition of cell growth incubated for 72 hrs by IncuCyte live-cell imaging analysis", "type": "functional, cell-based", "details": "NCI-H460, 72 h"}, "[5]": {"assay": "Antiproliferative activity against human DND41 cells assessed as inhibition of cell growth incubated for 72 hrs by IncuCyte live-cell imaging analysis", "type": "functional, cell-based", "details": "DND41, 72 h"}, "K562": {"tested_on": "K562", "assay": "Antiproliferative activity against human K562 cells assessed as inhibition of cell growth incubated for 72 hrs by IncuCyte live-cell imaging analysis", "type": "functional, cell-based", "details": "K562, 72 h"}, "Tubulin [6]": {"target": "Tubulin", "assay": "Inhibition of tubulin polymerization (unknown origin) by fluorescence-based tubulin polymerization assay", "type": "protein-complex assay, Homo sapiens"}, "DU-145": {"tested_on": "DU-145", "assay": "Cytotoxicity against human DU-145 cells assessed as inhibition of cell growth incubated for 24 hrs by MTT assay", "type": "functional, cell-based", "details": "DU-145, 24 h"}},
  "data": [
    {"smiles": "C=CN(c1cccc2ccccc12)S(=O)(=O)c1ccc(OC)cc1", "values": [
      {"measurement": "IC50", "setting": "A549", "result": 1350, "unit": "nM"},
      {"measurement": "IC50", "setting": "HCT-116 [1]", "result": 3.04, "unit": "µM"},
      {"measurement": "IC50", "setting": "[2]", "result": 6.84, "unit": "µM"},
      {"measurement": "IC50", "setting": "MDA-MB-231", "result": 2850, "unit": "nM"},
      {"measurement": "IC50", "setting": "Tubulin [3]", "result": 830, "unit": "nM"}
    ]},
    {"smiles": "COC(=O)Nc1ccc(C(=O)Nc2ccccc2OC)c(O)c1", "values": [
      {"measurement": "IC50", "setting": "CAPAN-1", "result": 1300, "unit": "nM"},
      {"measurement": "IC50", "setting": "Z-138", "result": 1300, "unit": "nM"},
      {"measurement": "IC50", "setting": "HCT-116 [4]", "result": 1400, "unit": "nM"},
      {"measurement": "IC50", "setting": "HL-60", "result": 1500, "unit": "nM"},
      {"measurement": "IC50", "setting": "NCI-H460", "result": 2800, "unit": "nM"},
      {"measurement": "IC50", "setting": "[5]", "result": 1300, "unit": "nM"},
      {"measurement": "IC50", "setting": "K562", "result": 1300, "unit": "nM"},
      {"measurement": "IC50", "setting": "Tubulin [6]", "result": 3.9, "unit": "µM"}
    ]},
    {"smiles": "COc1cccc2c1C(=O)c1c(O)c3c(c(O)c1C2=O)C[C@@](O)(C(=O)CO)C[C@@H]3O[C@H]1C[C@H](N)[C@H](O)[C@H](C)O1", "note": "[DOXORUBICIN]", "values": [
      {"measurement": "IC50", "setting": "DU-145", "result": "> 30", "unit": "µM"}
    ]}
  ]
}
